Key:
[1] = target: T1, LexA-rGR and B42-DHFR (UniProt P06536+P0ABQ4); conditions: shown by WO 01/53355; cited from earlier work
T1 sequence (P06536 542-776 limits assumed): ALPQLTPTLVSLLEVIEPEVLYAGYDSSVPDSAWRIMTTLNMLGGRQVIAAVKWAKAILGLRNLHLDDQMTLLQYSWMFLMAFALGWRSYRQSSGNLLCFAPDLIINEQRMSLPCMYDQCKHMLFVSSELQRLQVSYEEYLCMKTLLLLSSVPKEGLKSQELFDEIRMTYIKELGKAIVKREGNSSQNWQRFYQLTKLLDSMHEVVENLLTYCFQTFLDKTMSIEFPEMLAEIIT
T1 sequence (P0ABQ4 1-159): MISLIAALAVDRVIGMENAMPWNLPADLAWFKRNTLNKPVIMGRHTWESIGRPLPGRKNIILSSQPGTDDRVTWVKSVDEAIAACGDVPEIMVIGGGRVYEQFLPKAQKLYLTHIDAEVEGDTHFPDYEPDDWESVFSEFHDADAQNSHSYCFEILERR

[2] = test system: DHFR fusion protein; test: MP5 competition assay (yeast three-hybrid X-gal plate assay of lacZ transcription); assay type: cell-based; conditions: 1 μM D8M, X-gal plates, LexA/B42 chimeras of DHFR and rGR
Description: FIG. 7. MP5 Competition Assay. […] Columns A through H on each plate correspond to yeast strains containing different LexA- and/or B42-chimeras: A, LexA-Sec16p, B42-Sec6p. A is a direct protein-protein interaction used as a positive control. B, LexA, B42. C, LexA-eDHFR, B42-rGR. D, LexA-mDHFR, B42-rGR. E, LexA-rGR, B42-eDHFR. F, LexA-rGR, B42-mDHFR. G, LexA-eDHFR, B42. H, LexA, B42-rGR.
This competition assay was performed using D8M as the “well characterized” small molecule.

[3] = test system: E. coli; conditions: supplemented with appropriate nutrients; cited from earlier work
[4] = test system: dihydrofolate reductase (DHFR); conditions: cited from earlier work
[5] = test system: S. cerevisiae; conditions: supplemented with appropriate nutrients; cited from earlier work

Row | Structure (SMILES) | dimerization of LexA-rGR and B42-DHFR based on lacZ transcription [1] | induction of lacZ transcription [2] | growth in the presence of MTX [3] | affinity of DHFR binding [4] | affinity of DHFR inhibition [4] | growth in the presence of MTX [5]
1 | C[C@@H]1C[C@H]2C3CCC4=CC(=O)C=C[C@]4(C)[C@@]3(F)[C@@H](O)C[C@]2(C)[C@@]1(O)C(=O)NCCSCCCCCCCCSCC[C@H](NC(=O)c1ccc(N(C)Cc2cnc3nc(N)nc(N)c3n2)cc1)C(=O)O (stereo partly drawn) [D8M] | mediate the dimerization of LexA-rGR and B42-DHFR | induced lacZ transcription | – | – | – | –
2 | CN(Cc1cnc2nc(N)nc(N)c2n1)c1ccc(C(=O)N[C@@H](CCC(=O)O)C(=O)O)cc1 [MTX, methotrexate] | – | – | grow in the presence of MTX | nM affinity | pM affinity | grow in the presence of MTX
